The conditions of data set [1]: cited from earlier work. The procedure:
Alterations in the killing kinetic pattern under low salt (SP) and high salt (PBS) conditions can predict the interaction and mode of action of peptides on yeast. Because propidium (PI) dye can stain the live cells only temporarily, it will be released ... || To investigate the proteolytic stability of the peptides, the peptide solutions were pre-treated with trypsin for 40 min and added to C. albicans cells. After 24 h of incubation, cells were spread on agar plates (Figure 4).

The test system of data set [2] is Candida albicans CCARM 14007 (fluconazole-resistant strain). As to the kind of experiment: microbe, parasite or virus in culture. The class given is cell-based. An excerpt:
[…] The lowest drug concentration at which no more than one colony was visible on the agar plate, was defined as a minimum fungicidal concentration (MFC).

For a further data set, the system named is C. albicans CCARM 14007. To be noted: CCARM 14007, pH 7.2. The procedure:
C. albicans CCARM 14007 cells grown to the mid-log phase at 28 °C were suspended in 10 mM sodium phosphate (pH 7.2) buffer or PBS (pH 7.2) buffer with 10% YPD media at a density of 5 × 10^5 cells/mL. […] The cells were analyzed by fluorescence-activated cell sorting (FACS) system (Attune NxT acoustic focusing cytometer).

Data set [3] deals with C. albicans CCARM 14007-infected mouse lung. It is filed as in vivo, BALB/c mice. An excerpt:
Animal study was approved by the Institutional Animal Care and Use Committee (IACUC) in Sunchon National University, South Korea (SCNU IACUC-2019-10). […] The mice anesthetized by inhalation of isoflurane (5%: induction, 2%: maintenance) in pure oxygen were intratracheally instilled with C. albicans cells. One hour after exposure, each peptide sample was intratracheally administered at the indicated dose, and the mice were monitored for signs of morbidity for 6 days. The lungs of mice euthanized by CO2 inhalation were excised and fixed in 4% paraformaldehyde. The fixed tissues were dehydrated using a series of ethanol solutions (50–100%) and embedded in paraffin. Paraffin-embedded tissues were sectioned at a thickness of 5 µm (Leica microtome, Deerfield, IL, USA), and the histopathology of the lung tissues was performed using alcian blue without/with eosin, and hematoxylin and eosin (H&E) staining.
TNF-α and NO production levels in blood collected from mouse hearts were determined using mouse anti-TNF-α microplate ELISA kit (R&D Systems, Minneapolis, MN, USA) and Griess reagent kit (Invitrogen, Carlsbad, CA, USA), respectively, followed by the manufacturer’s instructions.

Another data set concerns C. albicans KCTC 7270. As to the kind of experiment: Drug-resistance assay (MFC over six passages). The class given is cell-based. The conditions noted are these: Candida albicans. The procedure: To investigate the induction of drug resistance, C. albicans KCTC 7270 cells were prepared as for antifungal assay described above, at concentrations ranging from 1 to 128 μM. After 24 h incubation, MFCs were determined by the above method, and the surviving cells at half MFCs of each sample were treated with the diluted samples, repeating the process six times.

Data set [4] deals with RAW 264.7 cells stimulated with C. albicans CCARM 14007. As to the kind of experiment: Anti-inflammatory assay in co-culture of RAW 264.7 and C. albicans. It is filed as cell-based, murine. To be noted: fluconazole 128 µM or PS1-2 32 µM, 24 h. The procedure:
RAW 264.7 cells were cultured in DMEM supplemented with 10% FBS, 1% penicillin/streptomycin, and GlutaMax at 5% CO2 at 37 °C. The RAW 264.7 cells (2 × 10^5 cells/mL) suspended with RPMI-1640 medium were seeded into 12-well plates and incubated for 24 h. […] After 24 h incubation, cells were washed and harvested in PBS. A total of 1000 µL of blocking solution (5% bovine serum albumin with PBS) was added to each sample, incubated at 25 °C for 30 min, removed by centrifugation at 1000× g, and then incubated with the primary antibody (anti-TLR2, or anti-TNF-α; Abcam, Cambridge, UK, 1:200 dilution) for 1 h. The cells were washed with PBS and incubated with a secondary antibody (fluorescein isothiocyanate-conjugated goat anti-mouse IgG, 1:500 dilution; Santa Cruz Biotechnology) for 1 h. Cells expressing TLR2 were measured using an Attune NxT acoustic focusing cytometer. TNF-α expression was visualized using a confocal laser-scanning microscope (CLSM, A1R HD 25, Nikon, Tokyo, Japan).

The source of these data is paper PMC9774446, “Antifungal and Anti-Inflammatory Activities of PS1-2 Peptide against Fluconazole-Resistant Candida albicans” (Antibiotics, 2022).

Values after ≈ are worked out from the molar mass of the structure shown. Like-named read-outs stand apart in the source and are kept apart here. No end group written: not given here.

What is called MFC is the smallest concentration meeting the test's criterion for killing the fungus. Take KWLKKWLKKWLK-NH2 [PS1-6]: in data set [1], the “toxicity / cytotoxicity (in words)” value is given as “significant toxicity”. Also, the minimum fungicidal concentration (MFC) in data set [2] (CCARM 14007, 24 h, pH 6) stood at 16 µM; in data set [2] (CCARM 14007, 24 h, pH 7.2) it was 16 µM.

As for KWYKKWYKKWYK-NH2 [PS1-2], the “toxicity / cytotoxicity (in words)” value in data set [1] was “significantly lower than that of PS1-6”. Moreover, in the data set with C. albicans CCARM 14007, the “cells killed (PI-positive cells)” value came out at 87%. Further, the MFC came out at 32 µM in data set [2] (CCARM 14007, 24 h, pH 6) and 32 µM in data set [2] (CCARM 14007, 24 h, pH 7.2). In data set [3] (mouse, in vivo, 2 mg/kg), the “lung histology of non-infected mice (in words)” value is given as “did not induce inflammation”.

Turning to RWYRRWYRRWYR-NH2 [PS1-5], the MFC in data set [2] (CCARM 14007, 24 h, pH 6) amounted to 16 µM; in data set [2] (CCARM 14007, 24 h, pH 7.2) it was 32 µM.

As for `OC(Cn1cncn1)(Cn1cncn1)c1ccc(F)cc1F` [Fluconazole, fluconazole], the minimum fungicidal concentration (MFC) in data set [2] (28 °C, 6 mM CaCl2 (pH 5.5), 24 h) was above 128 µM; in data set [2] (28 °C, 6 mM MgCl2 (pH 5.5), 24 h), above 128 µM; in data set [2] (28 °C, 24 mM KCl (pH 5.5), 24 h), above 128 µM; in data set [2] (28 °C, pH 5.5, 10 mM sodium phosphate buffer containing 10% media, 24 h) it was above 128 µM; in data set [2] (28 °C, pH 6.0, 10 mM sodium phosphate buffer containing 10% media, 24 h) it was above 128 µM; in data set [2] (28 °C, pH 7.2, 10 mM sodium phosphate buffer containing 10% media, 24 h), above 128 µM. Also, the MFC in data set [2] (37 °C, 6 mM CaCl2 (pH 5.5), 24 h) is above 128 µM; in data set [2] (37 °C, 6 mM MgCl2 (pH 5.5), 24 h), above 128 µM; in data set [2] (37 °C, 24 mM KCl (pH 5.5), 24 h) it was above 128 µM; in data set [2] (37 °C, 150 mM NaCl (pH 5.5), 24 h), above 128 µM; in data set [2] (37 °C, pH 5.5, 10 mM sodium phosphate buffer containing 10% media, 24 h), above 128 µM; in data set [2] (Candida albicans, CCARM14007, 24 h, pH 5.5), above 128 µM. Further, the minimal fungicidal concentration (MFC) in data set [2] (Candida albicans, CCARM14007, 24 h, pH 6) is above 128 µM; in data set [2] (Candida albicans, CCARM14007, 24 h, pH 7.2), above 128 µM; in the data set with C. albicans KCTC 7270 (KCTC7270, read-out: MFC after six passages, 28 °C, surviving cells at half MFC re-treated each passage), 2050 µM (≈ 627 µg/mL); with C. albicans KCTC 7270 (KCTC7270, read-out: MFC after six passages, 37 °C, surviving cells at half MFC re-treated each passage) it was 4100 µM (≈ 1250 µg/mL); in the data set on C. albicans KCTC 7270 (KCTC7270, read-out: MFC at first passage, 28 °C, drug-sensitive C. albicans KCTC 7270), 128 µM (≈ 39.2 µg/mL); with C. albicans KCTC 7270 (KCTC7270, read-out: MFC at first passage, 37 °C, drug-sensitive C. albicans KCTC 7270) it was 128 µM (≈ 39.2 µg/mL). The “TNF-α expression (in words)” value in data set [4] (CLSM) is “Overexpression of TNF-α”. Moreover, the “macrophage morphology (in words)” value in data set [4] (with C. albicans) was “Lamellipodia extension and spreading of cells”. Moreover, the “inhibition of TNF-α secretion in whole blood serum” value in data set [3] (C. albicans-infected mice, 2 mg/kg intratracheal 1 h after infection, 6 days, ELISA) is reported as “approximately 65%”. Also, the “NO production in whole blood serum (in words)” value in data set [3] (C. albicans-infected mice, 2 mg/kg intratracheal 1 h after infection, 6 days, Griess reagent) is listed as “did not inhibit NO production”. The “lung histology of infected mice (in words)” value in data set [3] (C. albicans-infected mice, 2 mg/kg intratracheal, H&E and alcian blue staining) was “an increase in the release of mucins”.
